US9315451B2, “Tetracycline compounds” (priority 2009, dated 2016)
Where two headings read alike, the source gives them in different places.

Test system: S. aureus Smith (ATCC 13709)
Test: Mouse systemic infection (septicemia) model, S. aureus Smith
Assay type: in vivo
Settings: Staphylococcus aureus; for responders at 3 mg/kg: ATCC13709, iv, read-out: SA Smith septicemia survival IV (3 mg/kg); for responders at 3 mg/kg / responders at 30 mg/kg: 48 h; for responders at 30 mg/kg: ATCC13709, po, read-out: SA Smith septicemia survival PO (30 mg/kg); for ED50: ATCC13709, dose that prevents 50% of the mice from death, 48 hours
Description: Mouse Systemic Infection Protocol-S. aureus Smith Septicemia
Compounds were screened for antibacterial activity in vivo in a mouse systemic infection (septicemia) model. In the model, CD-1 female mice (18-22 grams) were injected IP with a S. aureus Smith (ATCC 13709) inoculum that results in 0% survival within 24 to 48 hours. The bacterial dose required to achieve this effect was previously established through virulence studies. At one hour post infection, mice received either […] IV or […] PO. Typically, six mice were treated per dose group. Animal survival was assessed and recorded for 48 hours. Percent survival at 48 hours was recorded and PD50 (mg/kg) was determined for each compound tested.

[1] = CD-1 female mice, IV 3 mg/kg one hour post infection, survival at 48 hours
[2] = CD-1 female mice, PO 30 mg/kg one hour post infection, survival at 48 hours
[3] = CD-1 female mice, PO, read-out: SA Smith septicemia PD50 PO

`CN(C)[C@@H]1C(O)=C(C(N)=O)C(=O)[C@@]2(O)C(O)=C3C(=O)c4c(O)cc(CNC56CC7CC(CC(C7)C5)C6)c(F)c4C[C@H]3C[C@@H]12` [Compound S1-14-4] showed a responders at 3 mg/kg [1] of 100% and a responders at 30 mg/kg [2] of 0%.
In the case of `CN(C)[C@@H]1C(O)=C(C(N)=O)C(=O)[C@@]2(O)C(O)=C3C(=O)c4c(O)cc(CNCC56CC7CC(CC(C7)C5)C6)c(F)c4C[C@H]3C[C@@H]12` [Compound S1-14-25], the responders at 3 mg/kg [1] is reported as 33% and the responders at 30 mg/kg [2] is reported as 17%.
Compound `CN(C)[C@@H]1C(O)=C(C(N)=O)C(=O)[C@@]2(O)C(O)=C3C(=O)c4c(O)cc(CNC5C6CC7CC(C6)CC5C7)c(F)c4C[C@H]3C[C@@H]12` (some centres unmarked) [Compound S1-14-28] has a responders at 3 mg/kg [1] of 33% and a responders at 30 mg/kg [2] of 17%.
For `CN(C)[C@@H]1C(O)=C(C(N)=O)C(=O)[C@@]2(O)C(O)=C3C(=O)c4c(O)cc(CN(CCF)CC5CC5)c(F)c4C[C@H]3C[C@@H]12` [Compound S1-14-31], the responders at 3 mg/kg was 0% and the responders at 30 mg/kg was 0%.
In the case of `CCN(Cc1cc(O)c2c(c1F)C[C@H]1C[C@H]3[C@H](N(C)C)C(O)=C(C(N)=O)C(=O)[C@@]3(O)C(O)=C1C2=O)C1(C)CC1` [Compound S1-14-36], the responders at 3 mg/kg [1] is reported as 33% and the responders at 30 mg/kg [2] is reported as 0%.
`CN(Cc1ccccc1)Cc1cc(O)c2c(c1F)C[C@H]1C[C@H]3[C@H](N(C)C)C(O)=C(C(N)=O)C(=O)[C@@]3(O)C(O)=C1C2=O` [Compound S1-14-46] gave a responders at 3 mg/kg [1] of 0% and a responders at 30 mg/kg [2] of 0%.
`CCN(Cc1cc(O)c2c(c1F)C[C@H]1C[C@H]3[C@H](N(C)C)C(O)=C(C(N)=O)C(=O)[C@@]3(O)C(O)=C1C2=O)C1(C)CCCC1` [Compound S1-14-73] showed a responders at 3 mg/kg [1] of 50% and a responders at 30 mg/kg [2] of 75%.
Compound `CN(C)[C@@H]1C(O)=C(C(N)=O)C(=O)[C@@]2(O)C(O)=C3C(=O)c4c(O)cc(CNC5Cc6ccccc6C5)c(F)c4C[C@H]3C[C@@H]12` [Compound S1-14-90] has a responders at 3 mg/kg [1] of 33% and a responders at 30 mg/kg [2] of 0%.
For `CCC1(CNCc2cc(O)c3c(c2F)C[C@H]2C[C@H]4[C@H](N(C)C)C(O)=C(C(N)=O)C(=O)[C@@]4(O)C(O)=C2C3=O)CCC1` [Compound S1-14-91], the responders at 3 mg/kg [1] was 17% and the responders at 30 mg/kg [2] was 60%.
Compound `CN(C)[C@@H]1C(O)=C(C(N)=O)C(=O)[C@@]2(O)C(O)=C3C(=O)c4c(O)cc(CNCc5ccccc5)c(F)c4C[C@H]3C[C@@H]12` [Compound S1-14-105] has a responders at 3 mg/kg [1] of 67% and a responders at 30 mg/kg [2] of 0%.
`CN(C)[C@@H]1C(O)=C(C(N)=O)C(=O)[C@@]2(O)C(O)=C3C(=O)c4c(O)cc(CN5CCC6(CC5)CC6)c(F)c4C[C@H]3C[C@@H]12` [Compound S1-14-128] showed a responders at 3 mg/kg [1] of 100% and a responders at 30 mg/kg [2] of 100%.
For `CN(C)[C@@H]1C(O)=C(C(N)=O)C(=O)[C@@]2(O)C(O)=C3C(=O)c4c(O)cc(CN5CCC(C6CC6)CC5)c(F)c4C[C@H]3C[C@@H]12` [Compound S1-14-134], the responders at 3 mg/kg [1] was 50% and the responders at 30 mg/kg [2] was 17%.
Work on `CN(C)[C@@H]1C(O)=C(C(N)=O)C(=O)[C@@]2(O)C(O)=C3C(=O)c4c(O)cc(CNC(C)(C)CC(C)(C)C)c(F)c4C[C@H]3C[C@@H]12` [Compound S2-4-7] yielded a responders at 3 mg/kg [1] of 67% and a responders at 30 mg/kg [2] of 17%.
Work on `CN(C)[C@@H]1C(O)=C(C(N)=O)C(=O)[C@@]2(O)C(O)=C3C(=O)c4c(O)cc(CN5CCCCC56CC6)c(F)c4C[C@H]3C[C@@H]12` [Compound S2-4-11] yielded a responders at 3 mg/kg [1] of 0% and a responders at 30 mg/kg [2] of 0%.
`CN(Cc1cc(O)c2c(c1F)C[C@H]1C[C@H]3[C@H](N(C)C)C(O)=C(C(N)=O)C(=O)[C@@]3(O)C(O)=C1C2=O)CC(C)(C)C` [Compound S2-4-21] gave a responders at 3 mg/kg [1] of 16% and a responders at 30 mg/kg [2] of 0%.
Compound `CN(C)[C@@H]1C(O)=C(C(N)=O)C(=O)[C@@]2(O)C(O)=C3C(=O)c4c(O)cc(CN(C)C(C)(C)CC(C)(C)C)c(F)c4C[C@H]3C[C@@H]12` [Compound S2-4-30] has a responders at 3 mg/kg [1] of 33% and an ED50 [3] greater than 60 mg/kg.
With `CCN(Cc1cc(O)c2c(c1F)C[C@H]1C[C@H]3[C@H](N(C)C)C(O)=C(C(N)=O)C(=O)[C@@]3(O)C(O)=C1C2=O)C(C)(C)CC` [Compound S2-4-33] the responders at 3 mg/kg [1] was 67% and the responders at 30 mg/kg [2] was 33%.
`CN(C)[C@@H]1C(O)=C(C(N)=O)C(=O)[C@@]2(O)C(O)=C3C(=O)c4c(O)cc(CN(CC5CC5)C5CC5)c(F)c4C[C@H]3C[C@@H]12` [Compound S2-4-41] gave a responders at 3 mg/kg [1] of 0% and a responders at 30 mg/kg [2] of 0%.
For `CCN(Cc1cc(O)c2c(c1F)C[C@H]1C[C@H]3[C@H](N(C)C)C(O)=C(C(N)=O)C(=O)[C@@]3(O)C(O)=C1C2=O)CC(C)C` [Compound S2-4-50], the ED50 (CD-1 female mice, IV, read-out: SA Smith septicemia PD50 IV) was 1 mg/kg and the ED50 [3] was 10.1 mg/kg.
`CC(C)[C@@H](C)N(C)Cc1cc(O)c2c(c1F)C[C@H]1C[C@H]3[C@H](N(C)C)C(O)=C(C(N)=O)C(=O)[C@@]3(O)C(O)=C1C2=O` [Compound S2-4-57] gave a responders at 3 mg/kg [1] of 50% and a responders at 30 mg/kg [2] of 33%.
`CN(C)[C@@H]1C(O)=C(C(N)=O)C(=O)[C@@]2(O)C(O)=C3C(=O)c4c(O)cc(CN(C)C5(C6CC6)CC5)c(F)c4C[C@H]3C[C@@H]12` [Compound S2-4-60] showed a responders at 3 mg/kg [1] of 17% and a responders at 30 mg/kg [2] of 33%.
With `CCN(Cc1cc(O)c2c(c1F)C[C@H]1C[C@H]3[C@H](N(C)C)C(O)=C(C(N)=O)C(=O)[C@@]3(O)C(O)=C1C2=O)CC1CCCC1` [Compound S2-4-62] the responders at 3 mg/kg [1] was 17% and the responders at 30 mg/kg [2] was 25%.
In the case of `C[C@@H]1CCC[C@H](C)N1Cc1cc(O)c2c(c1F)C[C@H]1C[C@H]3[C@H](N(C)C)C(O)=C(C(N)=O)C(=O)[C@@]3(O)C(O)=C1C2=O` [Compound S2-4-66], the responders at 3 mg/kg [1] is reported as 100%, the responders at 30 mg/kg [2] is reported as 100% and the ED50 [3] is reported as 8.5 mg/kg.
With `CN(C)[C@@H]1C(O)=C(C(N)=O)C(=O)[C@@]2(O)C(O)=C3C(=O)c4c(O)cc(CN5CCCCC5(C)C)c(F)c4C[C@H]3C[C@@H]12` [Compound S6-4-1] the responders at 3 mg/kg [1] was 100% and the responders at 30 mg/kg [2] was 100%.
`CN(C)[C@@H]1C(O)=C(C(N)=O)C(=O)[C@@]2(O)C(O)=C3C(=O)c4c(O)cc(CNCC(C)(C)C)c(Cl)c4C[C@H]3C[C@@H]12` [Compound S15-13-5] showed a responders at 3 mg/kg [1] of 50% and a responders at 30 mg/kg [2] of 17%.
`CC(C)[C@@H](C)NCc1cc(O)c2c(c1Cl)C[C@H]1C[C@H]3[C@H](N(C)C)C(O)=C(C(N)=O)C(=O)[C@@]3(O)C(O)=C1C2=O` [Compound S15-13-8] was tested, and the responders at 3 mg/kg [1] was 67% and the responders at 30 mg/kg [2] was 50%.
`CN(C)[C@@H]1C(O)=C(C(N)=O)C(=O)[C@@]2(O)C(O)=C3C(=O)c4c(O)cc(CN5CCC(C)(C)CC5)c(Cl)c4C[C@H]3C[C@@H]12` [Compound S15-13-16] showed a responders at 3 mg/kg [1] of 33% and a responders at 30 mg/kg [2] of 17%.
`CN(C)[C@@H]1C(O)=C(C(N)=O)C(=O)[C@@]2(O)C(O)=C3C(=O)c4c(O)cc(CN5CCOCC5)c(Cl)c4C[C@H]3C[C@@H]12` [Compound S15-13-17] showed a responders at 3 mg/kg [1] of 100% and a responders at 30 mg/kg [2] of 67%.
For `CN(C)[C@@H]1C(O)=C(C(N)=O)C(=O)[C@@]2(O)C(O)=C3C(=O)c4c(O)cc(CN[C@@H]5CC6CCC5C6)c(Cl)c4C[C@H]3C[C@@H]12` (some centres unmarked) [Compound S15-13-23], the responders at 3 mg/kg [1] was 83% and the responders at 30 mg/kg [2] was 50%.
